Data as given in patent publication US11932653B2, “Lycorine derivative, and pharmaceutical composition and use thereof” (priority 2018, dated 2024).

Legend:
EV71 = assay: In-vitro experiment against EV71 virus (RD cells, MTT); format: cell-based; conditions: for EC50: Enterovirus A, RD cells infected with 100x TCID50 EV71, compound added after 2 hrs, MTT at 48 hrs; for SI: selectivity index, EV71, RD cells
Procedure: (§1) RD cells were seeded into a 96-well plate (10^4 cells/well), and infected with 100× TCID50 of EV71 viruses. After 2 hrs, various concentrations of the derivative were added. […] Uninfected cells were also given various concentrations of the derivative to determine the CC50.

[1] = Cytotoxicity in uninfected RD cells (CC50, MTT); format: cell-based; conditions: human, Table 1
Procedure: as §1
(§2) RD cells were seeded into a 96-well plate (10^4 cells/well), and infected with 100×TCID50 of CAV16 viruses. After 2 hrs, various concentrations of the derivative were added. […] Uninfected cells were also given various concentrations of the derivative to determine the CC50.

[2] = system: Salmonella typhimurium TA100; assay: Test of reverse mutation in histidine-deficient Salmonella typhimurium, strain TA100; format: cell-based; conditions: for Number of colonies TA100(+S9): solvent control 170.7 ± 10.9
Procedure: (§3) The mutagenic effect of Compound 6 on the strains TA100 and TA102 was detected by determining the reverse mutation in histidine-deficient Salmonella typhimurium by pre-loaded culture dish method. The dosage of Compound 6 is 8, 40, 200, 1000, or 5000 μg/dish under activated and non-activated conditions, and the mutagenic effects on TA100 and TA102 were tested.

[3] = Toxicity test in ICR mice after single administration by intraperitoneal injection; format: in vivo; conditions: for minimum lethal dose: 10-day-old ICR mice, single intraperitoneal injection, observed 14 days; for MTD at 14 days: both sexes, ICR; for MTD at 14 days / Weight on day 1 after administration: mouse, in vivo, ip
Procedure: 22 10-day-old ICR mice were randomly assigned to 17 groups, and given Compound 6 once by intraperitoneal injection at a dosage of 0.625, 1.25, 2.5, 5, 10, 20, 40, 80, 100, 160, 200, 250, 300, 470, 500, 1000, or 2000 mg/kg. 1-2 animals were included in each group, and the male and female mice were administered alternately. […] The dead animals are necropsied and the changes in main organs were observed. On day 1 after administration, the weight of the animals in the 160 mg/kg group is decreases by 0.3 g, and the weight of the animals in the 0.625, 1.25, 2.5, 5, 10, 20, 40, 80, 100 mg/kg group is increased, compared to the day of administration. Under the conditions in this experiment, ICR mice were given Compound 6 once by intraperitoneal injection. The minimum lethal dose was 200 mg/kg and the maximum tolerated dose was 160 mg/kg.
24 10-day-old ICR mice were randomly assigned to 19 groups, and given Compound 6 once by intraperitoneal injection at a dosage of 0.625, 1.25, 2.5, 5, 10, 20, 40, 60, 80, 100, 120, 136, 160, 270, 320, 500, 690, 1000, or 2000 mg/kg. 1-2 animals were included in each group, and the male and female mice were administered alternately. […] The dead animals are necropsied and the changes in main organs were observed. […] Under the conditions in this experiment, ICR mice were given Compound 20 once by intraperitoneal injection.

[4] = system: Salmonella typhimurium TA102; assay: Test of reverse mutation in histidine-deficient Salmonella typhimurium, strain TA102; format: cell-based; conditions: for Number of colonies TA102(−S9): solvent control 225.0 ± 7.5; for Number of colonies TA102(+S9): solvent control 236.5 ± 5.0
Procedure: as §3

CAV16 = assay: In-vitro experiment against Coxsackievirus A16 (CAV16) (RD cells, MTT); format: cell-based, Coxsackievirus Virus A16 (CAV16); conditions: for EC50: Coxsackievirus, RD cells infected with 100x TCID50 CAV16, compound added after 2 hrs, MTT at 48 hrs; for SI: selectivity index, CAV16, RD cells
Procedure: as §2

[5] = 8-5000 μg/dish, activated and non-activated conditions

CC(C)c1ccc(OCC(=O)OC2C(O)C=C3CCN4Cc5cc6c(cc5C2C34)OCO6)cc1 (stereo not drawn) [Compound 10, 1-(4-isopropyl-phenoxyacetyl)-lycorine]
EC50 (EV71): 1.67 µM
SI (EV71): 60.63
CC50 at 48 h [1]: 101 µM

O=C(CSc1ccc(Cl)cc1)OC1C(O)C=C2CCN3Cc4cc5c(cc4C1C23)OCO5 (stereo not drawn) [Compound 11, 1-(4-chloro-phenylthioacetyl)-lycorine]
EC50 (EV71): 1.46 µM
SI (EV71): 89.40
CC50 at 48 h [1]: 131 µM

O=C(COc1ccc(I)cc1)OC1C(O)C=C2CCN3Cc4cc5c(cc4C1C23)OCO5 (stereo not drawn) [Compound 9, 1-(4-iodo-phenoxyacetyl)-lycorine]
EC50 (EV71): 1.84 µM
SI (EV71): 54.15
CC50 at 48 h [1]: 99.6 µM

[N-]=[N+]=[N-].[Na+] [NaN3, reference compound]
Number of colonies TA100(−S9) ([2]; 1.5 μg/dish, positive control): >1000

Cc1ccc(OCC(=O)OC2C(O)C=C3CCN4Cc5cc6c(cc5C2C34)OCO6)c(C)c1 (stereo not drawn) [Compound 13, 1-(2,4-dimethyl-phenoxyacetyl)-lycorine]
EC50 (EV71): 1.56 µM
SI (EV71): 95.33
CC50 at 48 h [1]: 149 µM

O=C(COc1ccc([N+](=O)[O-])cc1)OC1C(O)C=C2CCN3Cc4cc5c(cc4C1C23)OCO5 (stereo not drawn) [Compound 8, 1-(4-nitro-phenoxyacetyl)-lycorine]
EC50 (EV71): 1.23 µM
SI (EV71): 85.67
CC50 at 48 h [1]: 105 µM

O=C(COc1ccccc1Cl)OC1C(O)C=C2CCN3Cc4cc5c(cc4C1C23)OCO5 (stereo not drawn) [Compound 14, 1-(2-chloro-phenoxyacetyl)-lycorine]
EC50 (EV71): 1.63 µM
SI (EV71): 89.10
CC50 at 48 h [1]: 145 µM

Cc1ccc(OCC(=O)OC2C(O)C=C3CCN4Cc5cc6c(cc5C2C34)OCO6)cc1 (stereo not drawn) [Compound 12, 1-(4-methylphenoxyacetyl)-lycorine]
EC50 (EV71): 1.53 µM
SI (EV71): 87.73
CC50 at 48 h [1]: 134 µM

O=C(COc1ccc(F)cc1)OC1C(O)C=C2CCN3Cc4cc5c(cc4C1C23)OCO5 (stereo not drawn) [Compound 6, 1-(4-fluoro-phenoxyacetyl)-lycorine]
EC50 (EV71): 1.27 µM
SI (EV71): 103.30
CC50 at 48 h [1]: 131 µM
minimum lethal dose [3]: 200 mg/kg
MTD at 14 days [3]: 160 mg/kg
Weight on day 1 after administration ([3]; 0.625 mg/kg): 7.3
Weight on day 1 after administration ([3]; 5 mg/kg): 6.9
Weight on day 1 after administration ([3]; 10 mg/kg): 6.5
Weight on day 1 after administration ([3]; 20 mg/kg): 7.5
Weight on day 1 after administration ([3]; 40 mg/kg): 7.7
Weight on day 1 after administration ([3]; 80 mg/kg): 7.3
Weight on day 1 after administration ([3]; 100 mg/kg): 7.3
Weight on day 1 after administration ([3]; 160 mg/kg): 6.3
Number of colonies TA100(−S9) ([2]; 8 μg/dish, solvent control 165.3 ± 10.7): 152.7 ± 9.4
Number of colonies TA100(+S9) ([2]; 8 μg/dish): 159.3 ± 11.3
Number of colonies TA100(−S9) ([2]; 40 μg/dish, solvent control 165.3 ± 10.7): 141.8 ± 5.9
Number of colonies TA100(+S9) ([2]; 40 μg/dish): 158.7 ± 10.7
Number of colonies TA100(−S9) ([2]; 200 μg/dish, solvent control 165.3 ± 10.7): 152.7 ± 9.5
Number of colonies TA100(+S9) ([2]; 200 μg/dish): 158.5 ± 11.5
Number of colonies TA100(−S9) ([2]; 1000 μg/dish, solvent control 165.3 ± 10.7): 113.0 ± 14.2
Number of colonies TA100(+S9) ([2]; 1000 μg/dish): 127.7 ± 10.1
Number of colonies TA100(−S9) ([2]; 5000 μg/dish, solvent control 165.3 ± 10.7): 110.5 ± 7.8
Number of colonies TA100(+S9) ([2]; 5000 μg/dish): 114.7 ± 3.8
mutagenic effect on TA100 [2, 5]: negative
Number of colonies TA102(−S9) ([4]; 8 μg/dish): 223.0 ± 9.1
Number of colonies TA102(+S9) ([4]; 8 μg/dish): 235.0 ± 9.6
Number of colonies TA102(−S9) ([4]; 40 μg/dish): 205.0 ± 14.6
Number of colonies TA102(+S9) ([4]; 40 μg/dish): 222.5 ± 9.3
Number of colonies TA102(−S9) ([4]; 200 μg/dish): 192.8 ± 18.6
Number of colonies TA102(+S9) ([4]; 200 μg/dish): 208.3 ± 6.8
Number of colonies TA102(−S9) ([4]; 1000 μg/dish): 182.3 ± 10.3
Number of colonies TA102(+S9) ([4]; 1000 μg/dish): 195.2 ± 8.6
Number of colonies TA102(−S9) ([4]; 5000 μg/dish): 147.2 ± 20.3
Number of colonies TA102(+S9) ([4]; 5000 μg/dish): 180.7 ± 11.7
mutagenic effect on TA102 [4, 5]: negative

COc1ccc(OCC(=O)OC2C(O)C=C3CCN4Cc5cc6c(cc5C2C34)OCO6)cc1 (stereo not drawn) [Compound 18, 1-(4-methoxy-phenoxyacetyl)-lycorine]
EC50 (EV71): 1.65 µM
SI (EV71): 97.65
CC50 at 48 h [1]: 161 µM

O=C(CCCOc1ccccc1)OC1C(O)C=C2CCN3Cc4cc5c(cc4C1C23)OCO5 (stereo not drawn) [Compound 4, 1-(4-phenoxybutyryl)-lycorine]
EC50 (EV71): 1.76 µM
SI (EV71): 84.84
CC50 at 48 h [1]: 150 µM

O=C(COc1cccc(Cl)c1)OC1C(O)C=C2CCN3Cc4cc5c(cc4C1C23)OCO5 (stereo not drawn) [Compound 15, 1-(3-chloro-phenoxyacetyl)-lycorine]
EC50 (EV71): 1.73 µM
SI (EV71): 87.61
CC50 at 48 h [1]: 152 µM

O=C(COc1ccc2ccccc2c1)OC1C(O)C=C2CCN3Cc4cc5c(cc4C1C23)OCO5 (stereo not drawn) [Compound 19, 1-(2-naphthyl-phenoxyacetyl)-lycorine]
EC50 (EV71): 1.97 µM
SI (EV71): 82.94
CC50 at 48 h [1]: 163 µM

O=C(CSc1ccc(F)cc1)OC1C(O)C=C2CCN3Cc4cc5c(cc4C1C23)OCO5 (stereo not drawn) [Compound 20, 1-(4-fluoro-phenylthioacetyl)-lycorine]
minimum lethal dose [3]: 160 mg/kg
MTD at 14 days [3]: 136 mg/kg
Weight on day 1 after administration ([3]; 0.625 mg/kg): 5.2
Weight on day 1 after administration ([3]; 1.25 mg/kg): 6.6
Weight on day 1 after administration ([3]; 5 mg/kg): 6.4
Weight on day 1 after administration ([3]; 10 mg/kg): 6.5
Weight on day 1 after administration ([3]; 20 mg/kg): 5.9
Weight on day 1 after administration ([3]; 40 mg/kg): 6.8
Weight on day 1 after administration ([3]; 60 mg/kg): 7
Weight on day 1 after administration ([3]; 100 mg/kg): 6.8
Weight on day 1 after administration ([3]; 136 mg/kg): 6.7

O=C(CSc1ccccc1)OC1C(O)C=C2CCN3Cc4cc5c(cc4C1C23)OCO5 (stereo not drawn) [Compound 2, 1-phenylthioacetyl-lycorine]
EC50 (EV71): 1.65 µM
SI (EV71): 69.35
CC50 at 48 h [1]: 114 µM
EC50 (CAV16): 0.57 µM
SI (CAV16): 200.73

O=C(CCc1ccccc1)OC1C(O)C=C2CCN3Cc4cc5c(cc4C1C23)OCO5 (stereo not drawn) [Compound 23, 1-(3-phenylpropionyl)-lycorine]
EC50 (EV71): 1.73 µM
SI (EV71): 74.28
CC50 at 48 h [1]: 129 µM

O=C(COc1ccccc1[N+](=O)[O-])OC1C(O)C=C2CCN3Cc4cc5c(cc4C1C23)OCO5 (stereo not drawn) [Compound 17]
EC50 (EV71): 1.71 µM
SI (EV71): 91.37
CC50 at 48 h [1]: 156 µM

O=C(CCOc1ccccc1)OC1C(O)C=C2CCN3Cc4cc5c(cc4C1C23)OCO5 (stereo not drawn) [Compound 5, 1-(3-phenoxypropionyl)-lycorine]
EC50 (EV71): 1.45 µM
SI (EV71): 92.43
CC50 at 48 h [1]: 134 µM

O=C(COc1ccc(Br)cc1)OC1C(O)C=C2CCN3Cc4cc5c(cc4C1C23)OCO5 (stereo not drawn) [Compound 7, 1-(4-bromo-phenoxyacetyl)-lycorine]
EC50 (EV71): 1.47 µM
SI (EV71): 70.36
CC50 at 48 h [1]: 103 µM

O=C(COc1ccc(Cl)cc1)OC1C(O)C=C2CCN3Cc4cc5c(cc4C1C23)OCO5 (stereo not drawn) [Compound 3, 1-(4-chloro-phenoxyacetyl)-lycorine]
EC50 (EV71): 1.28 µM
SI (EV71): 139.85
CC50 at 48 h [1]: 154 µM

O=C(COc1ccc(Cl)cc1Cl)OC1C(O)C=C2CCN3Cc4cc5c(cc4C1C23)OCO5 (stereo not drawn) [Compound 16, 1-(2,4-dichloro-phenoxyacetyl)-lycorine]
EC50 (EV71): 1.71 µM
SI (EV71): 75.94
CC50 at 48 h [1]: 130 µM

O[C@H]1[C@H]2c3cc4c(cc3CN3CCC(=C[C@@H]1O)[C@H]23)OCO4 [Lycorine]
EC50 (EV71): 2.26 µM
SI (EV71): 46.24
CC50 at 48 h [1]: 105 µM
EC50 (CAV16): 1.57 µM
SI (CAV16): 66.57
